Read-outs that look alike come from different tables or passages of the source.
Assays:
[1] = Metabolite profile of SMZ in rats (LC-v.ARC/MS-IT-TOF); assay type: in vivo; settings: rat urine; after i.m. injection
Description: (§1) (0.1 Ci/g). […] Urine and feces samples were stored at −80 °C.
(§2) The weight of each aliquot was 0.1% of the total fraction weight (0.25% for urine). Each sample was centrifuged at 4 °C for 5 min at 4000 rpm/min. The supernatant was collected and 2 mol/L methanol-mixed acid (methanol: 0.5% perchloric acid, 8:1, v:v) was added. Then, the mixture was centrifugated at 10,000 r/min for 10 min, the supernatant was collected and dried with nitrogen at 45 °C. […] The mixture was subjected to Liquid Chromatography tandem on-line isotope detector/Time of Flight Mass Spectrometry (LC-ν.ARC/MS-IT-TOF) system analysis.
(§3) The mixture was prepared for LC-ν. ARC/MS-IT-TOF system analysis.
(§4) X is the percentage of the individual radioactive substances within the total radioactive residues. AUCM is the area under the curve of the individual radioactive substances in the specific samples. AUCT is the area under the curve of the total radioactive residues in the specific samples.

[2] = Metabolite profile of SMZ in pigs (LC-v.ARC/MS-IT-TOF); assay type: in vivo; settings: for Detection in feces: pig feces, 7 d after administration
Description: as §1
Each sample was centrifuged at 4 °C for 5 min at 4000 rpm/min. The supernatant was collected and 2 mol/L methanol-mixed acid (methanol: 0.5% perchloric acid, 8:1, v:v) was added. Then, the mixture was centrifugated at 10,000 r/min for 10 min, the supernatant was collected and dried with nitrogen at 45 °C. […] The mixture was subjected to Liquid Chromatography tandem on-line isotope detector/Time of Flight Mass Spectrometry (LC-ν.ARC/MS-IT-TOF) system analysis.
as §3, §4

[3] = Metabolite profile of SMZ in chickens (LC-v.ARC/MS-IT-TOF); assay type: in vivo; settings: for Share of the total radioactivity in feces: 0.5–1 d after administration; for Percentage of the individual metabolite compared with total concentration of SMZ-related compounds: within 12 h after dosing
Description: as §1, §2, §3, §4

[4] = Tissue distribution and residue depletion in pigs
Description: (§5) Another 6 rats were administered physiological saline at the same dose and in exactly the same way as the other animals. The same as above, at each sampling time point, a non-administered animal was killed and a sample was taken to obtain a blank sample. The medication groups samples and blank samples were washed and their weight was recorded. Afterwards, all samples were homogenized and divided into two parts. One part was used to detect the total radioactivity, and the other part was used for SMZ and metabolite analysis.
(§6) The total radioactivity in the samples were measured by Packard Tricarb 2900 liquid scintillation analyzer (LSC). The pretreated 200 μL liquid sample (urine, blood, and bile) was taken and 10 mL of Ultima Gold scintillation fluid was added for total radioactivity detection by LSC. Then, 200 mg of solid samples (feces and tissues) were accurately weighed, and 2 mL of digestion solution were added and mixed well, then the samples were placed in a 55 °C water bath for 6 h, and cooled to room temperature for later use. Then, 0.1 mol/L disodium edetate (EDTA-2Na) and 30% H2O2 of 200 μL were added and mixed evenly. At room temperature, 10 mL Ultima Gold scintillation fluid was added, and radioactivity determination was performed after standing [21].
The feces and tissues (2 g) were extracted with 10 mL methanol and water (4:1, v:v). The mixture was vortexed and sonicated for 5 min and 10 min, respectively, and finally the samples were centrifugated at 8000 rpm/min for 10 min. The supernatants were transferred into a new centrifuge tube and the residues were further extracted with 10 mL methanol and water (4:1, v:v). The supernatants were combined and evaporated to dryness under a nitrogen stream at 45 °C. The residues were dissolved with 0.5 mL of mobile phase and vortexed mixed for 30 s. Then, 1 mL n-hexane was added to remove the lipid, the mixture was vortexed evenly mixed, centrifugated at 10,000 rpm/min for 10 min and the n-hexane layer was discarded. […] The SMZ and its metabolites in the prepared samples were determined by a ν. ARC radiation detector and a hybrid IT/TOF mass spectrometer connected to the HPLC system (Shimadzu Corp., Kyoto, Japan). The HPLC system was equipped with a solvent delivery pump (LC20AD), autosampler (SIL20AC), DGU20A3 degasser, photodiode array detector (SPDM20A), communication base module (CBM20A), and a column oven (CTO20AC). Separation was performed on a X Bridge C18 column (150 × 2.1 mm; 3.5 μm) using a gradient elution consisting of mobile phase A (0.1% formic acid in water) and mobile phase B (acetonitrile). […] Photo-diode array (PDA) detection was performed from 200 to 400 nm. The sample chamber in the autosampler was maintained at 4 °C, whereas the column was set at 25 °C. The total effluent from the detector was transferred directly to the hybrid IT-TOF mass spectrometer without splitting. Metabolites were isolated and identified using a Shimadzu high-performance liquid chromatography-mass spectrometry-ion trap-time-of-flight (LC-MS-IT-TOF) hybrid mass spectrometer equipped with an electrospray ionization (ESI) source and operated in the positive mode. The eluate from the chromatographic separation was divided into two portions. The portion for metabolic quantification was applied to a ν.ARC 2.0, and the rest was analyzed and identified by ion trap time-of-flight tandem mass spectrometry (IT-TOF-MS/MS). Radiochemical detection was performed using the ν.ARC 2.0 Radio-LC system Detector RS232 equipped with a 500 μL detector cell (AIM Research Co., Hockessin, DE, USA).

[5] = Tissue distribution and residue depletion in chickens; settings: for Concentration of the metabolites in kidney: oral gavage 25 mg/kg twice a day for 7 d, 3 d
Description: In addition, the animals in the blank group (pigs and chickens) and the animals in the treatment group were given physiological saline and 0.5% carboxymethyl cellulose aqueous solution in exactly the same dose and in exactly the same way. […] The same as above, at each sampling time point, a non-administered animal was killed and a sample was taken to obtain a blank sample. The medication groups samples and blank samples were washed and their weight was recorded. Afterwards, all samples were homogenized and divided into two parts. One part was used to detect the total radioactivity, and the other part was used for SMZ and metabolite analysis.
as §6
The feces and tissues (2 g) were extracted with 10 mL methanol and water (4:1, v:v). The mixture was vortexed and sonicated for 5 min and 10 min, respectively, and finally the samples were centrifugated at 8000 rpm/min for 10 min. The supernatants were transferred into a new centrifuge tube and the residues were further extracted with 10 mL methanol and water (4:1, v:v). The supernatants were combined and evaporated to dryness under a nitrogen stream at 45 °C. The residues were dissolved with 0.5 mL of mobile phase and vortexed mixed for 30 s. Then, 1 mL n-hexane was added to remove the lipid, the mixture was vortexed evenly mixed, centrifugated at 10,000 rpm/min for 10 min and the n-hexane layer was discarded. […] The SMZ and its metabolites in the prepared samples were determined by a ν. ARC radiation detector and a hybrid IT/TOF mass spectrometer connected to the HPLC system (Shimadzu Corp., Kyoto, Japan). The HPLC system was equipped with a solvent delivery pump (LC20AD), autosampler (SIL20AC), DGU20A3 degasser, photodiode array detector (SPDM20A), communication base module (CBM20A), and a column oven (CTO20AC). Separation was performed on a X Bridge C18 column (150 × 2.1 mm; 3.5 μm) using a gradient elution consisting of mobile phase A (0.1% formic acid in water) and mobile phase B (acetonitrile). […] Photo-diode array (PDA) detection was performed from 200 to 400 nm. The sample chamber in the autosampler was maintained at 4 °C, whereas the column was set at 25 °C. The total effluent from the detector was transferred directly to the hybrid IT-TOF mass spectrometer without splitting. Metabolites were isolated and identified using a Shimadzu high-performance liquid chromatography-mass spectrometry-ion trap-time-of-flight (LC-MS-IT-TOF) hybrid mass spectrometer equipped with an electrospray ionization (ESI) source and operated in the positive mode. The eluate from the chromatographic separation was divided into two portions.

[6] = pigs, single i.m. 25 mg/kg b.w.
Description: (§7) Six Wistar rats (three females and three males), six chickens and four pigs were housed in clean metabolic cages. […] (0.1 Ci/g). The broiler chickens were given the same dose by oral gavage. According to the recommended guidelines, the urine and feces samples of these animals were collected at different time intervals. […] At the end of the experiment, all animals were anesthetized and sacrificed in accordance with euthanasia guidelines (AVMA, 2001). Urine and feces samples were stored at −80 °C.
as §6

[7] = chickens, single oral gavage 25 mg/kg b.w.
Description: as §7, §6

[8] = Tissue distribution and residue depletion in rats; settings: single i.m. dose
Description: as §5
The total radioactivity in the samples were measured by Packard Tricarb 2900 liquid scintillation analyzer (LSC). The pretreated 200 μL liquid sample (urine, blood, and bile) was taken and 10 mL of Ultima Gold scintillation fluid was added for total radioactivity detection by LSC. […] At room temperature, 10 mL Ultima Gold scintillation fluid was added, and radioactivity determination was performed after standing [21].
The feces and tissues (2 g) were extracted with 10 mL methanol and water (4:1, v:v). […] The SMZ and its metabolites in the prepared samples were determined by a ν. […] The portion for metabolic quantification was applied to a ν.ARC 2.0, and the rest was analyzed and identified by ion trap time-of-flight tandem mass spectrometry (IT-TOF-MS/MS). […]

[9] = cited from earlier work
[10] = tested on: TA100 strain of Salmonella typhimurium; settings: cited from earlier work
[11] = pig, within 12 h after administration
[12] = chicken, 6 h after administration
[13] = female rats, single i.m. 25 mg/kg b.w., within 14 d
[14] = male rats, single i.m. 25 mg/kg b.w., within 14 d
[15] = female rats, single i.m. 25 mg/kg b.w., 0–0.5 d
[16] = female rats, single i.m. 25 mg/kg b.w., 0.5–1 d
[17] = female rats, single i.m. 25 mg/kg b.w., 1–3 d
[18] = female rats, single i.m. 25 mg/kg b.w., 3–7 d
[19] = female rats, single i.m. 25 mg/kg b.w., 7–14 d
[20] = male rats, single i.m. 25 mg/kg b.w., 0–0.5 d
[21] = male rats, single i.m. 25 mg/kg b.w., 0.5–1 d
[22] = male rats, single i.m. 25 mg/kg b.w., 1–3 d
[23] = male rats, single i.m. 25 mg/kg b.w., 3–7 d
[24] = male rats, single i.m. 25 mg/kg b.w., 7–14 d

## Cc1cc(NS(=O)(=O)c2ccc(NC3OC(C(=O)O)C(O)C(O)C3O)cc2)no1 (stereo not drawn) [Compound S5, N4-glucuronidsulfamethoxazole]
[1]
  Detection in urine by LC-MS-IT-TOF: trace amounts
[2]; pig urine, 0–0.5 d
  Detection in urine by LC/MS-IT-TOF: trace amounts
[3]; chicken feces, 12 h
  Detection in feces by LC-MS-IT-TOF: trace amount

## CC(=O)Nc1ccc(S(=O)(=O)Nc2cc(C)on2)cc1 [Compound S1, N4-acetyl-sulfamethoxazole]
[2]
  Detection in feces: detected
[4]; [11]
  Share of the total residues in fat: 58.1%
  Share of the total residues in kidney: 66.5%
  Share of the total residues in muscle: 44.1%
[5]; [12]
  Share of the residual amount in fat: 70.0%
  Share of the residual amount in kidney: 1.0%
  Share of the residual amount in liver: 71.7%
  Share of the residual amount in muscle: 42.1%

## Cc1cc(NS(=O)(=O)c2ccc(NS(=O)(=O)O)cc2)no1 [Compound S4, N4-sulfatesulfamethoxazole]
[3]; chicken feces
  Share of the total radioactivity in feces: 2.06%
[5]; chicken
  Concentration of the metabolites in kidney: not detected

## Cc1cc(NS(=O)(=O)c2ccc(N)cc2)no1 [Compound S0, sulfamethoxazole]
[2]
  Detection in feces: not detected
[6]; 0–14 d
  Recovery of total radioactivity in feces: 14.7%
[13]
  Total recovery of radioactivity (urine + feces): 97%
[14]
  Total recovery of radioactivity (urine + feces): 98%
Rats (sexes together), single i.m. 25 mg/kg b.w., within 14 d
  Excreted through feces: 21.4%
[4]; [11]
  Share of the total residues in fat: 41.9%
  Share of the total residues in kidney: 33.5%
  Share of the total residues in liver: 34.4%
  Share of the total residues in muscle: 55.9%

## [3H]c1cc(N)ccc1S(=O)(=O)Nc1cc(C)on1 [[^3H]-SMZ, 2-[^3H]-sulfamethoxazole]
[6]; 0–0.5 d
  Recovery of total radioactivity in feces: 5.56 ± 0.42%
  Recovery of total radioactivity in urine: 60.02 ± 16.54%
  Total radioactive recovery rate (urine and feces): exceeds 65%
[6]; 0–14 d
  Recovery of total radioactivity in feces: 14.72 ± 1.31%
[6]; 0.5–1 d
  Recovery of total radioactivity in feces: 2.69 ± 3.12%
  Recovery of total radioactivity in urine: 15.3 ± 8.73%
[6]; 1–3 d
  Recovery of total radioactivity in feces: 5.19 ± 3.36%
  Recovery of total radioactivity in urine: 4.52 ± 2.22%
[6]; 3–7 d
  Recovery of total radioactivity in feces: 0.82 ± 0.34%
  Recovery of total radioactivity in urine: 0.59 ± 0.17%
[6]; 7–14 d
  Recovery of total radioactivity in feces: 0.45 ± 0.3%
  Recovery of total radioactivity in urine: 0.16 ± 0.04%
[7]; 0–0.5 d, 25 mg/kg
  Recovery of total radioactivity in excreta: 60.65 ± 13.08%
[7]; 0–14 d
  Recovery of total radioactivity in excreta: 93.39 ± 2.28%
[7]; 0.5–1 d
  Recovery of total radioactivity in excreta: 15.08 ± 6.87%
[7]; 1–3 d
  Recovery of total radioactivity in excreta: 11.91 ± 9.67%
[7]; 3–7 d
  Recovery of total radioactivity in excreta: 5.48 ± 1.89%
[7]; 7–14 d
  Recovery of total radioactivity in excreta: 0.26 ± 0.13%
[15]
  Recovery of total radioactivity in feces: 14.31 ± 1.73%
  Recovery of total radioactivity in urine: 45.38 ± 6.09%
Female rats, single i.m. 25 mg/kg b.w., 0–14 d
  Recovery of total radioactivity in feces: 19.58 ± 2.09%
[16]
  Recovery of total radioactivity in feces: 4.45 ± 1.87%
  Recovery of total radioactivity in urine: 19.41 ± 2.15%
[17]
  Recovery of total radioactivity in feces: 1.02 ± 0.72%
  Recovery of total radioactivity in urine: 10.09 ± 3.14%
[18]
  Recovery of total radioactivity in feces: 0.42 ± 0.28%
  Recovery of total radioactivity in urine: 3.97 ± 1.24%
[19]
  Recovery of total radioactivity in feces: 0.05 ± 0.03%
  Recovery of total radioactivity in urine: 0.38 ± 0.17%
[13]
  Total recovery of radioactivity (urine + feces): 97.3 ± 1.16%
[20]
  Recovery of total radioactivity in feces: 17.3 ± 1.16%
  Recovery of total radioactivity in urine: 45.33 ± 4.79%
Male rats, single i.m. 25 mg/kg b.w., 0–14 d
  Recovery of total radioactivity in feces: 23.24 ± 1.79%
[21]
  Recovery of total radioactivity in feces: 5.3 ± 1.43%
  Recovery of total radioactivity in urine: 19.31 ± 7.15%
[22]
  Recovery of total radioactivity in feces: 0.35 ± 0.14%
  Recovery of total radioactivity in urine: 7.49 ± 2.04%
[23]
  Recovery of total radioactivity in feces: 0.25 ± 0.14%
  Recovery of total radioactivity in urine: 2.7 ± 1.89%
[24]
  Recovery of total radioactivity in feces: 0.05 ± 0.03%
  Recovery of total radioactivity in urine: 0.49 ± 0.3%
[14]
  Total recovery of radioactivity (urine + feces): 98.56 ± 2.82%
rats, single i.m. 25 mg/kg b.w., 0–0.5 d
  Total radioactive recovery rate (urine and feces): > 59%
rats, single i.m., within 14 days
  Dose excreted (total radioactivity): more than 93%
[8]
  Time point of the highest levels of radioactivity in all collected substrates: 1 h
[4]; pigs, i.m. 7 consecutive days
  Time point of the highest levels of radioactivity in all collected substrates: 12 h
[5]; chickens, gavage 7 consecutive days
  Time point of the highest levels of radioactivity in all collected substrates: 6 h

## Cc1cc(NS(=O)(=O)c2ccc(NO)cc2)no1 [Compound S3, N4-hydroxyamino sulfamethoxazole]
[3]; chicken Extra (feces/excreta)
  Percentage of the individual metabolite compared with total concentration of SMZ-related compounds: 4.4%
[3]; chicken bile
  Percentage of the individual metabolite compared with total concentration of SMZ-related compounds: not detected
[3]; chicken feces
  Share of the total radioactivity in feces: no longer detected
[3]; chicken plasma (blood)
  Percentage of the individual metabolite compared with total concentration of SMZ-related compounds: 0.9%
[9]
  Reactivity / direct cytotoxicity: neither highly reactive nor directly cytotoxic
[5]; chicken
  Concentration of the metabolites in kidney: not detected

## CC(=O)ONc1ccc(S(=O)(=O)Nc2cc(C)on2)cc1 [N-acetoxy-SMZ]
[9]
  In vitro cytotoxicity relative to S3: more toxic than S3
[10]
  Mutagenicity in the Ames test: weak mutations

## Nc1ccc(S(=O)(=O)Nc2cc(CO)on2)cc1 [Compound S2, 5-hydroxysulfamethoxazole]
[3]; chicken Extra (feces/excreta)
  Percentage of the individual metabolite compared with total concentration of SMZ-related compounds: 9.6%
[3]; chicken bile
  Percentage of the individual metabolite compared with total concentration of SMZ-related compounds: 2.5%
[3]; chicken plasma (blood)
  Percentage of the individual metabolite compared with total concentration of SMZ-related compounds: 1.2%
[5]; chicken
  Concentration of the metabolites in kidney: not detected

— article PMC9861212 (Metabolites, 2022)
